The text below walks through data of patent US20220047658A1, “TCM ADDITION AND SUBTRACTION PRESCRIPTION USED PREVENTION/TREATMENT OF METABOLIC SYNDROME AND COMPLICATIONS” (priority 2019, published 2022).

Holding throughout (format): in vivo
The test system of experiment [1] is db/db mice. The experiment in a line: Measurement of glycosylated hemoglobin (HbAlc) concentration. To be noted: D29, once per day intragastric, RX-6 6 mg/kg, RX-12 12 mg/kg, MET 350 mg/kg, NOR 8.85%, FIG. 2. An excerpt:
Glycosylated hemoglobin (GHb) is a product hemoglobin in red blood cells, conjugated with saccharides in serum. GHb is formed via slow, persistent, and irreversible glycation; its content is dependent on blood glucose concentration, and exposure duration of blood glucose to hemoglobin, and independent of blood collection time, patients' fasting or non-fasting status, or insulin use or non-use, etc. Therefore, GHb may efficiently reflect blood glucose control in patients with diabetes mellitus in the past 1-2 month.
Test method: after animal are fasted, 20 μL of whole blood is collected and placed into an EP tube containing HbAlc diluent; the content of HbAlc is measured by a full-automatic analyzer. The specific method refers to the Instructions of the Kit.
To investigate TCM complex for prevention and treatment of type II diabetes mellitus in animal model, grade SPF BKS.Cg-Dock7m+/+Leprdb/J mice (referred to as db/db mice for short) were used to conduct a hypoglycemic experiment validation. The mice were allowed with free access to feed and water. […]
The concentration was measured on D29 after oral administration of the drug. The animals were fasted for 4-6 h, and then anesthetized by inhalation of isoflurane; […] of whole blood was collected from orbital venous plexus and placed into a EP tube containing HbAlc diluent; the content of HbAlc was measured by a full-automatic analyzer. […]

In experiment [2] the test system is db/db mice. The experiment in a line: Quantitative test for UTP 24-h urine protein (diabetic nephropathy test). To be noted: D29, RX-6 6 mg/kg, RX-12 12 mg/kg, MET 350 mg/kg, NOR 39.30 mg/DL, FIG. 3. An excerpt: (§1) Overnight urine is collected and placed on crushed ice to test urine total protein, urine albumin, urine microalbumin, and urine creatinine.
(§2) To investigate TCM complex for prevention and treatment of type II diabetes mellitus in animal model, grade SPF BKS.Cg-Dock7m+/+Leprdb/J mice (referred to as db/db mice for short) were used to conduct a hypoglycemic experiment validation. The mice were allowed with free access to feed and water. The mice were assigned into 4 groups (4 mice per group), and were administered intragastrically with the complex, once per day. […] The animals of each group were orally administered with the sample to Week 4. Urine and blood were collected 4 week later.
The drugs in the drug groups included Poria, Semen Coicis, Rhizoma Dioscoreae, Semen Euryales, Semen Nelumbinis, Endothelium Corneum Gigeriae Galli, and Paeonia Lactiflora; the preparation method is that, Poria, Semen Coicis, Rhizoma Dioscoreae, Semen Euryales, Semen Nelumbinis, Endothelium Corneum Gigeriae Galli, and Paeonia Lactiflora were prepared and then compounded in a weight ratio of 1:1:1:1:1:1:2 to produce a powder. […]
Quantitative test for 24 h urine protein (UTP24) is a urine test method in which 24-h discharged total urine is collected to conduct a […] test.

The subject of experiment [3] is db/db mice. In words: Test for mAlb urine microalbumin (diabetic nephropathy test). To be noted: D29, RX-6 6 mg/kg, RX-12 12 mg/kg, MET 350 mg/kg, NOR 20.10 mg/L, FIG. 5.
Description: as §1, §2
(§3) The drugs in the drug groups included Poria, Semen Coicis, Rhizoma Dioscoreae, Semen Euryales, Semen Nelumbinis, Endothelium Corneum Gigeriae Galli, and Paeonia Lactiflora; the preparation method is that, Poria, Semen Coicis, Rhizoma Dioscoreae, Semen Euryales, Semen Nelumbinis, Endothelium Corneum Gigeriae Galli, and Paeonia Lactiflora were prepared and then compounded in a weight ratio of 1:1:1:1:1:1:2 to produce a powder. The obtained powder was diluted in a certain proportion to obtain RX−6 of the low dose (6 mg/kg) drug group, and RX-12 of the high dose (12 mg/kg) drug group. […]

Experiment [4] has as its system db/db mice. The experiment in a line: Test for urine creatinine (diabetic nephropathy test). To be noted: 29-d raise, MET 350 mg/kg, FIG. 6.
Description: as §1, §2, §3

Experiment [5] relates to db/db mice. The experiment in a line: Non-fasting blood glucose level. To be noted: MET 350 mg/kg, D4 after oral administration. How it is done:
The measured value of 2-H postprandial blood glucose test is the most valuable and may reflect reserve function of pancreatic islet B cells. Blood glucose is measured after animals eat feed.
(§4) To investigate TCM complex for prevention and treatment of type II diabetes mellitus in animal model, grade SPF BKS.Cg-Dock7m+/+Leprdb/J mice (referred to as db/db mice for short) were used to conduct a hypoglycemic experiment validation. The mice were allowed with free access to feed and water. The mice were assigned into 4 groups (4 mice per group), and were administered intragastrically with the complex, once per day. […] The animals of each group were orally administered with the sample to Week 4. Urine and blood were collected 4 week later. […]
The animals were fed randomly and then blood was collected at tail end to measure non-fasting blood glucose level. Fasting blood glucose was measured for […], i.e.: prior to grouping, and 24 h, D4, D7, D15, D21, and D27 after administration of the drug.

Experiment [6] concerns db/db mice. In words: Measurement of fasting blood glucose level. To be noted: MET 350 mg/kg, 2 d after oral administration, data not shown. How it is done:
Fasting blood glucose means blood glucose level under the basal condition, reflecting the basal function of pancreatic islet B cells, and is an important criterion for diagnosis of diabetes mellitus. Oral glucose tolerance test means determination of fasting blood glucose after animals are fasted, and then animals are administered with the drug and administered intragastrically with glucose solution at the corresponding timepoints, and blood glucose is measured prior to intragastric administration of glucose, and 30 min, 60 min and 120 min after intragastric administration of glucose.
as §4
After animals were fasted for 4-6 h, blood was collected at tail end to measure fasting blood glucose. Fasting blood glucose was measured for 4 times, i.e.: prior to grouping, and D2, D7, and D15 after administration of the drug.

For `CN(C)C(=N)N=C(N)N` [MET, metformin], in the experiment on db/db mice [1], the “glycosylated hemoglobin value (HbAlc)” value is 6%. For the same molecule, the “UTP24 h urine protein” value with db/db mice [2] was 39.65 mg/dL. Further, the “mAlb urine microalbumin content” value in the experiment on db/db mice [3] is on record as 8.50 mg/L. Also, in the experiment with db/db mice [4], the urine creatinine increased than that in the negative control group NOR came out at 10.5 µM. The “non-fasting blood glucose level compared with control” value in the experiment on db/db mice [5] is recorded as “less than that in the positive control”. Further, the “fasting blood glucose level compared with negative control group NOR” value in the experiment with db/db mice [6] is recorded as “less than that in negative control group NOR”.
